Here are results for 32 compounds from ChEMBL document CHEMBL1614632, “Trend analysis of a database of intravenous pharmacokinetic parameters in humans for 670 drug compounds” (Drug Metab Dispos, 2008).

Numbered stars: 1 amine (or outer) side, 2 acyl side, 3 side chain; on linkers, the order of the positions; unused ones are H or OH. Bridge positions count the residues as written; N and C are the ends. Square brackets hold non-standard residues; d marks the D form. Peptide text beside a SMILES is read from it. * marks the point of attachment. hTyr(3S-OH,4S-OH,3'-OSO3H) = N[C@H](C(=O)O)[C@H](O)[C@@H](O)c1ccc(O)c(OS(=O)(=O)O)c1; Orn(4R-OH,5R-OH) = O=C([C@H](C[C@@H](O)[C@@H](O)N[*:3])N[*:1])[*:2]; Pro(3S-OH,4S-Me) = C[C@H]1CN[C@H](C(=O)O)[C@H]1O; X1 = CCCCCOc1ccc(-c2cc(-c3ccc(C(=O)*)cc3)no2)cc1; Gln(3R-OH) = NC(=O)C[C@@H](O)[C@H](N)C(=O)O; Hyp = O=C(O)[C@@H]1C[C@@H](O)CN1

Data set [1] in a line: clinical. The note with it: human, in vivo, iv, Vdss.
The nature of data set [2]: clinical. The note with it: human, in vivo, iv, CL.
A short description of data set [3]: clinical. The note with it: human, in vivo, iv.
The nature of data set [4]: clinical. The note with it: human, in vivo, iv. This is another data set of the same source.
Data set [5] in a line: clinical. As to conditions: human, in vivo, iv, t1/2.

In the case of `CN(C)CCCN1c2ccccc2CCc2cc(O)ccc21` [2-HYDROXYIMIPRAMINE], in “clinical [1]”, the Vd stood at 6.6 L/kg. The compound further had a clearance in “clinical [2]” of 9.2 mL/min/kg. The unbound share (fraction unbound) in “clinical [3]” is 0.36. In the data set “clinical [4]”, this compound had a mean residence time MRT of 12 h. The same compound had a half-life in “clinical [5]” of 10 h.
The matching figures for `C=CC[N+]1([C@H]2C[C@H]3[C@@H]4CC[C@H]5C[C@H](O)[C@@H](N6CCOCC6)C[C@]5(C)[C@H]4CC[C@]3(C)[C@H]2OC(C)=O)CCCC1` [ROCURONIUM]: 0.21 L/kg, 3.7 mL/min/kg, 0.54, 0.95 h and 1.6 h.
The matching figures for `CCC1CN2CCC1CC2[C@@H](O)c1ccnc2ccc(OC)cc12` (stereo not given in full) [DIHYDROQUINIDINE]: 2.8 L/kg, 4.2 mL/min/kg, 0.22, 11 h and 5.7 h.
Take `CCCCCOc1ccc(-c2cc(-c3ccc(C(=O)N[C@H]4C[C@@H](O)[C@@H](O)NC(=O)[C@@H]5[C@@H](O)[C@@H](C)CN5C(=O)[C@H]([C@H](O)CC(N)=O)NC(=O)[C@H]([C@H](O)[C@@H](O)c5ccc(O)c(OS(=O)(=O)O)c5)NC(=O)[C@@H]5C[C@@H](O)CN5C(=O)[C@H]([C@@H](C)O)NC4=O)cc3)no2)cc1` [MICAFUNGIN] (X1-[Orn(4R-OH,5R-OH)]T[Hyp][hTyr(3S-OH,4S-OH,3'-OSO3H)][Gln(3R-OH)][Pro(3S-OH,4S-Me)]; lactam 1-C): in the data set “clinical [1]”, the volume of distribution (Vd) came to 0.21 L/kg. Moreover, in “clinical [2]”, the clearance came to 0.17 mL/min/kg. The same compound gave a fraction unbound in the data set “clinical [3]” of 0.0023. In “clinical [4]”, the mean residence time (MRT) worked out at 21 h. The compound further showed a half-life in “clinical [5]” of 16 h.
Regarding `Nc1c(CC(=O)O)cccc1C(=O)c1ccc(Br)cc1` [BROMFENAC], the Vd in “clinical [1]” is 0.11 L/kg. For the same compound, in the data set “clinical [2]”, the clearance was found to be 1.3 mL/min/kg. Further, the unbound share (fraction unbound) in the data set “clinical [3]” amounted to 0.0011. In “clinical [4]”, the MRT was 1.5 h. In the data set “clinical [5]”, this compound had a half-life of 2.6 h.
`Nc1nc(/C(=N/O)C(=O)N[C@@H]2C(=O)N3C(C(=O)O)=C(/C=C4\CCN([C@@H]5CCNC5)C4=O)CS[C@H]23)ns1` [CEFTOBIPROLE] returned a Vd in the data set “clinical [1]” of 0.27 L/kg. For the same compound, in “clinical [2]”, the clearance turned out to be 1.5 mL/min/kg. Moreover, in “clinical [3]”, the free fraction (fraction unbound) stood at 0.62. Also, in the data set “clinical [4]”, the MRT is 3 h. The half-life in “clinical [5]” is 3.3 h.
In the data set “clinical [1]”, `CN[C@@H](C)Cc1ccccc1` [METHAMPHETAMINE] registered a volume of distribution (Vd) of 4.3 L/kg. For the same compound, in the data set “clinical [2]”, the clearance amounted to 4.4 mL/min/kg. In the data set “clinical [3]”, this compound yielded a fraction unbound of 0.85. Besides, the MRT in the data set “clinical [4]” was found to be 16 h. Further, in “clinical [5]”, the half-life was 12 h.
The matching figures for `CC(C)(C)NCC(O)COc1cccc2c1CC(O)C(O)C2` (stereo not given) [NADOLOL]: 1.9 L/kg, 2.9 mL/min/kg, 0.14, 11 h and 9.2 h.
The matching figures for `O=C1CCC(N2C(=O)c3ccccc3C2=O)C(=O)N1` (stereo not given) [THALIDOMIDE]: 0.95 L/kg, 3.4 mL/min/kg, 0.4, 4.3 h and 4.7 h.
As for `O=C1C(O)=C([C@H]2CC[C@H](c3ccc(Cl)cc3)CC2)C(=O)c2ccccc21` [ATOVAQUONE], in “clinical [1]”, the Vd was determined as 0.6 L/kg. Also, the clearance in the data set “clinical [2]” turned out to be 0.15 mL/min/kg. Moreover, the fraction unbound in “clinical [3]” was determined as 0.001. The compound also displayed an MRT in the data set “clinical [4]” of 67 h. The compound also gave a half-life in “clinical [5]” of 63 h.
On the same counts, the results for `C[C@@H](O)[C@H]1C(=O)N2C(C(=O)O)=C(S[C@@H]3CN[C@H](C(=O)Nc4cccc(C(=O)O)c4)C3)[C@H](C)[C@H]12` are 0.12 L/kg, 0.45 mL/min/kg, 0.1, 4.4 h and 3.8 h.
The matching figures for `C#C[C@]1(O)C=C[C@H]2[C@@H]3CCC4=CC(=O)CC[C@@H]4[C@H]3CC[C@@]21CC` [GESTODENE]: 0.46 L/kg, 0.8 mL/min/kg, 0.023, 9.6 h and 10 h.
The matching figures for `CN(C)[C@@H]1C(O)=C(C(=O)NCN2CCCC2)C(=O)[C@@]2(O)C(O)=C3C(=O)c4c(O)cccc4[C@@](C)(O)[C@H]3C[C@@H]12` [ROLITETRACYCLINE]: 0.54 L/kg, 0.97 mL/min/kg, 0.5, 9.3 h and 8.8 h.
Consider `O=C1CN=C(c2ccccc2Cl)c2cc(Cl)ccc2N1` [DELORAZEPAM], for which the distribution volume (Vd) in “clinical [1]” turned out to be 2.2 L/kg. In the data set “clinical [2]”, this compound had a clearance of 0.17 mL/min/kg. In the data set “clinical [3]”, this compound gave a fraction unbound of 0.051. In addition, in the data set “clinical [4]”, the MRT is 220 h. Also, the half-life in “clinical [5]” was 200 h.
The compound `CC(=O)N(CC(O)CO)c1c(I)c(C(=O)NCC(O)CO)c(I)c(C(=O)NCC(O)CO)c1I` (stereo not given) [IOHEXOL] gave a distribution volume (Vd) in the data set “clinical [1]” of 0.16 L/kg. The clearance in the data set “clinical [2]” was found to be 2 mL/min/kg. In “clinical [3]”, this compound had a fraction unbound of 1. Moreover, the mean residence time (MRT) in the data set “clinical [4]” stood at 1.3 h. Moreover, the half-life in “clinical [5]” is 1.5 h.
On the same counts, the results for `CO/N=C(\C(=O)N[C@@H]1C(=O)N2C(C(=O)O)=CCS[C@H]12)c1csc(N)n1` [CEFTIZOXIME] are 0.2 L/kg, 2.1 mL/min/kg, 0.72, 1.6 h and 1.5 h.
In the case of `Nc1nc(N)c2nc(-c3ccccc3)c(N)nc2n1`, the Vd in the data set “clinical [1]” was determined as 13 L/kg. The compound further yielded a clearance in “clinical [2]” of 63 mL/min/kg. Also, in “clinical [3]”, the free fraction (fraction unbound) came to 0.42. In addition, the MRT in the data set “clinical [4]” came out at 3.4 h. Besides, the half-life in the data set “clinical [5]” is 4.3 h.
The matching figures for `Nc1cc(-c2ccncc2)c[nH]c1=O` [INAMRINONE]: 1.3 L/kg, 8.9 mL/min/kg, 0.89, 2.4 h and 2 h.
The matching figures for `CC(Oc1ccccc1)C(=O)N[C@@H]1C(=O)N2[C@@H]1SC(C)(C)[C@@H]2C(=O)O` (stereo not given in full) [PHENETHICILLIN]: 0.3 L/kg, 4.2 mL/min/kg, 0.25, 1.2 h and 0.91 h.
On the same counts, the results for `CCN[C@@H](C)Cc1cccc(C(F)(F)F)c1` [DEXFENFLURAMINE] are 11 L/kg, 11 mL/min/kg, 0.66, 18 h and 14 h.
Take `CN(C)CCCN1c2ccccc2Sc2ccccc21` [PROMAZINE]: the distribution volume (Vd) in “clinical [1]” is 8.1 L/kg. Moreover, the clearance in the data set “clinical [2]” was 14 mL/min/kg. In addition, the fraction unbound in the data set “clinical [3]” worked out at 0.11. Also, the mean residence time MRT in the data set “clinical [4]” stood at 9.6 h. In the data set “clinical [5]”, the half-life is 7.9 h.
On the same counts, the results for `O=NN(CCCl)C(=O)NCCCl` [CARMUSTINE] are 1.2 L/kg, 78 mL/min/kg, 0.23, 0.26 h and 0.37 h.
The matching figures for `Nc1nc(Cl)nc2c1ncn2[C@H]1C[C@H](O)[C@@H](CO)O1` [CLADRIBINE]: 7.7 L/kg, 14 mL/min/kg, 0.79, 9.2 h and 16 h.
On to `CCC(=O)O[C@]1(C(=O)SCF)[C@H](C)C[C@H]2[C@@H]3C[C@H](F)C4=CC(=O)C=C[C@]4(C)[C@@]3(F)[C@@H](O)C[C@@]21C` [FLUTICASONE PROPIONATE], for which the Vd in “clinical [1]” worked out at 3.6 L/kg. Besides, the clearance in the data set “clinical [2]” worked out at 17 mL/min/kg. The same compound had a fraction unbound in the data set “clinical [3]” of 0.1. In the data set “clinical [4]”, this compound yielded a mean residence time (MRT) of 3.9 h. This compound also had a half-life in the data set “clinical [5]” of 6 h.
The matching figures for `COc1cc(NS(C)(=O)=O)ccc1Nc1c2ccccc2nc2ccccc12` [AMSACRINE]: 1.6 L/kg, 4.3 mL/min/kg, 0.029, 6.2 h and 4.7 h.
The matching figures for `C[C@@H]([C@@H](O)c1ccc(O)cc1)N1CCC(O)(c2ccccc2)CC1` [TRAXOPRODIL]: 4.4 L/kg, 27 mL/min/kg, 0.63, 2.6 h and 3.7 h.
Turning to `CCN(CCO)CCCC(C)Nc1ccnc2cc(Cl)ccc12` (stereo not given) [HYDROXYCHLOROQUINE], the distribution volume (Vd) in the data set “clinical [1]” was found to be 700 L/kg. The clearance in “clinical [2]” was 11 mL/min/kg. In addition, the unbound share (fraction unbound) in the data set “clinical [3]” was determined as 0.57. In addition, the MRT in the data set “clinical [4]” is 1300 h. The compound also showed a half-life in “clinical [5]” of 850 h.
On the same counts, the results for `C[C@H](O)C(=O)Nc1c(I)c(C(=O)NC(CO)CO)c(I)c(C(=O)NC(CO)CO)c1I` [IOPAMIDOL] are 0.28 L/kg, 1.9 mL/min/kg, 1, 2.5 h and 2.1 h.
The matching figures for `CC[C@@H](CO)NCCN[C@@H](CC)CO` [ETHAMBUTOL]: 1.7 L/kg, 10 mL/min/kg, 0.18, 2.7 h and 3.1 h.
In turn, `CC(C)NCC(O)c1ccc(O)c(O)c1` (stereo not given) [ISOPROTERENOL] showed a Vd in “clinical [1]” of 1.5 L/kg. For the same compound, the clearance in the data set “clinical [2]” came out at 56 mL/min/kg. Also, in the data set “clinical [3]”, the free fraction (fraction unbound) was found to be 0.71. Besides, the mean residence time (MRT) in “clinical [4]” stood at 0.43 h. In “clinical [5]”, this compound showed a half-life of 0.41 h.
As for `CCNC(=O)[C@@H]1CCCN1C(=O)[C@H](CCCNC(=N)N)NC(=O)[C@H](CC(C)C)NC(=O)[C@@H](CC(C)C)NC(=O)[C@H](Cc1ccc(O)cc1)NC(=O)[C@H](CO)NC(=O)[C@H](Cc1c[nH]c2ccccc12)NC(=O)[C@H](Cc1c[nH]cn1)NC(=O)[C@@H]1CCC(=O)N1` [LEUPROLIDE], the Vd in the data set “clinical [1]” came to 0.38 L/kg. In the data set “clinical [2]”, this compound had a clearance of 2 mL/min/kg. The compound also showed a free fraction (fraction unbound) in “clinical [3]” of 0.54. The same compound returned an MRT in “clinical [4]” of 3.1 h. Also, the half-life in “clinical [5]” is 2.9 h.
On the same counts, the results for `CCC(C)(C)NCC(O)COc1ccccc1C(=O)CCc1ccccc1` (stereo not given) [DIPRAFENONE] are 1.2 L/kg, 11 mL/min/kg, 0.017, 1.9 h and 1.5 h.
